# Data from patent publication US20180179174A1, “12H-BENZO[b]XANTHEN-12-ONES, COMPOSITIONS CONTAINING, AND USES OF, SAME” (Thesan Pharmaceuticals, Inc., priority 2015, published 2018).
# What was measured:
# [1] = biological target: T1, Aryl Hydrocarbon Receptor (Homo sapiens, UniProt P35869); experiment: AhR activation, luciferase reporter (plox-XRE TATA-Luc) in HEP G2 cells; format: cell-based; conditions: 24 h, 1-10 uM
# T1 construct: endogenous in cells; host or cells: normal human keratinocytes (NHK) transduced with the reporter lentivector plox-XRE TATA-Luc
# T1 sequence (P35869 11-848): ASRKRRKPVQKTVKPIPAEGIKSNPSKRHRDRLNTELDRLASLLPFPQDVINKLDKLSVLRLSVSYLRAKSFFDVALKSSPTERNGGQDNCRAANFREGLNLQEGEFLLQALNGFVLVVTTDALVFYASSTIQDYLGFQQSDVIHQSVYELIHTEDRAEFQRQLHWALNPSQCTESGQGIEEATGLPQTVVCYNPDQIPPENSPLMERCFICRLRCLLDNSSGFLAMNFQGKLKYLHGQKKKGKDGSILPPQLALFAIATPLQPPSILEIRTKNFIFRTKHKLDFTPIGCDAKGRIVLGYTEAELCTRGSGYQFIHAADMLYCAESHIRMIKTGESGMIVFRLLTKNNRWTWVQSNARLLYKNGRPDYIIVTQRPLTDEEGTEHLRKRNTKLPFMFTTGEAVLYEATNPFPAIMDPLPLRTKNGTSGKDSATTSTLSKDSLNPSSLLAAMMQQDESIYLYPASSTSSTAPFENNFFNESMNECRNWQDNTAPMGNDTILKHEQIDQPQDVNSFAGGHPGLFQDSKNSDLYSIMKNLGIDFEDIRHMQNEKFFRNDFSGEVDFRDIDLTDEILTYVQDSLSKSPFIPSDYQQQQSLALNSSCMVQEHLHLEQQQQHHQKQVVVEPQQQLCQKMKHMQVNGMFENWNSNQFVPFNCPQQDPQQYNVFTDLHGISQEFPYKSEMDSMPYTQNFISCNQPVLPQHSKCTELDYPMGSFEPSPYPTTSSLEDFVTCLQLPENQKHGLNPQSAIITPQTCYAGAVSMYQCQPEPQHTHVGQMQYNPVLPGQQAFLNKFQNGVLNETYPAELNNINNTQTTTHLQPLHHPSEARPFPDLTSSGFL
# Protocol: AhR activation is measured in HEP G2 cells (hepatocytes, Hep G2 is a human liver carcinoma cell line) stably transfected with the lentivector plox-XRE TATA-Luc. The Hep G2 cells are cultured in a growing media consisting of DMEM (Gibco)+10% fetal bovine serum+penicillin+streptomycin. At D0, the Hep G2 cells are seeded into 12-well plates in proportions of approximately 30,000 cells/cm^2. After 24 h, the medium is replaced with fresh medium and the cells are transduced with the lentivector plox-XRE TATA-Luc. After 48 h, the cells are subcultured and maintained in culture, and tested for their reactivity to 3-phenyl-1H-benzo[f]chromen-1-one. The tests are carried out using the luciferase reporter assay system kit from Promega. At D0, the cells are seeded at a density of approximately 60% confluence, and then treated, at D1, with the test substance diluted to various concentrations in the appropriate culture medium. At D2, the cells are lysed in CLB buffer, and the lysate is clarified by centrifugation for 5 min at 10 000 g. The luciferase activity is measured in 20 microliters of lysate as recommended by the supplier, using the luminoskan luminometer (Thermo). […] Data is processed and EC50's can be calculated from standard data monitoring software.
# [2] = biological target: T1, Aryl Hydrocarbon Receptor; experiment: AhR activation, luciferase reporter (plox-XRE TATA-Luc) in normal human keratinocytes; format: cell-based; conditions: NHK-plox-XRE TATA-Luc cells, 24 h, 1-10 uM
# Protocol: AhR activation is also measured in human skin cells such as normal human keratinocytes (NHK cells) or A431 epidermoid cells stably transfected with the lentivector plox-XRE TATA-Luc. The NHK cells are cultured in a specific keratinocyte SFM medium (Gibco)+penicillin+streptomycin. At D0, the NHK cells are seeded into 6-well plates in a proportion of approximately 15,000 cells/cm^2. After 24 h, the medium is replaced with fresh medium and the cells are transduced with the lentivector plox-XRE TATA-Luc. After 48 h, the cells are subcultured and maintained in culture, and tested for their reactivity to 3-phenyl-1H-benzo[f]chromen-1-one. The tests are carried out using the luciferase reporter assay system kit from Promega. At D0, the cells are seeded at a density of approximately 60% confluence, and then treated, at D1, with the test substance diluted to various concentrations in the appropriate culture medium. At D2, the cells are lysed in CLB buffer, and the lysate is clarified by centrifugation for 5 min at 10 000 g. The luciferase activity is measured in 20 microliters of lysate as recommended by the supplier, using the luminoskan luminometer (Thermo). […] Data is processed and EC50's can be calculated from standard data monitoring software.
# CYP1A1 [3] = experiment: CYP1A1 activity test (P450-GLO) in HEP G2 or NHK cells; format: cell-based, human; conditions: 24 h, 1-10um, control compound
# Protocol: The essential methodology for culture and handling of HEP G2 cells and NHK cells has been described in Examples 2 and 3. The tests are carried out using the P450-GLO assay kit from Promega. At D0, the cells are seeded at a density of approximately 60% confluence, and then treated at D1 with the test substance diluted to various concentrations in the appropriate culture medium. At D2, the CYP1A1 activity is measured as recommended by the supplier, using the non-lytic protocol on a cell monolayer.
# CYP1A1 [4] = experiment: Induction of Cyp1A1 in HEP G2 cells (EROD assay); format: cell-based; conditions: human, probe 7-ethoxyresorufin (8 μM), HepG2 cells, 1-10 μM range, vs solvent
# Protocol: The essential methodology for culture and handling of HEP G2 cells and NHK cells has been described in Examples 2 and 3. HepG2 cells are seeded at between 1×10^4 and 2.5×10^4 cells/well in a 96-well microtitre plate. […] The formation of resorufin is quantified by fluorometry with a fluorescence plate reader. Fluorescence is determined at λex 570 nm and λem 590 nm. The amount of resorufin is calculated from a standard curve generated using 0 to 1 μM resorufin in water at ½ log dilutions. The remaining (i.e. all cells present at the beginning of analysis, since only supernatant is taken to assay EROD) live cells are subsequently utilized for the MIT cytotoxicity assay. MTT is made up in serum-free medium at 5 mg/ml. then added to the cells giving a final concentration of 10% (0.5 mg/ml MTT final) then incubated for 2 h. The medium is carefully removed, then MTT formazan is solubilized by adding 200 μl of DMSO and subsequently mixed on a plate shaker. The absorbance is measured spectrophotometrically at 550 nm and background absorbance at 690 nm is subtracted. A standard curve generated using MTT formazan (dissolved in DMSO) from 0-200 μM (0, 2, 5, 10, 20, 50, 100, 200 μM) is used to calculate the final experimental values which are then expressed as (μmol resorufin/mol MIT formazan) or as fold-induction compared to solvent.
# sebaceous glands = experiment: Mouse ear assay for determination of sebaceous gland prevalence; format: in vivo, C57BL/6J male mice; conditions: 0.7% in DMSO:acetone 50:50, 80 ul dermal twice a day for five days, vs controls
# Protocol: C57BL/6J male mice (Harlan Models), approximately 4-5 weeks of age, body weight 20-30 g, were acclimatized (individually housed) for 5 days in a 12 hour light/dark cycle standard laboratory environment (T=20-24° C., relative humidity 30-70%, 15-20 air changes per hour) with access to water and standard rodent chow (Harlan Teklad 2014C supplied by Harlan Laboratories Models, S.L.) ad libitum. […] All animals were monitored daily for reaction to the treatment, signs of illness, and behavioral changes. Body weights were recorded before the first administration and immediately prior to sacrifice. Approximately 12 to 16 hours after the final administration on day 5 the mice were sacrificed by i.p. injection of sodium pentobarbital (200 mg/kg) and the ears were collected. Each ear was sectioned into two halves. For each animal, one-half of one ear was fixed, in neutral phosphate-buffered 4% formaldehyde solution (4% formalin). This trimmed section of the ear was then processed, embedded in paraffin wax and stored at room temperature. The remaining half of that ear and the entire opposite ear was frozen at −80° C. Wax mounted ear pieces were sectioned with a microtome and stained with hematoxylin and eosin. Sebaceous glands were identified visually by their structures. […]
SMILES,induction of the luciferase activity [1],induction (luciferase activity) [2],induction of the CYP1A1 activity (CYP1A1 [3]),fold induction at 24 h (CYP1A1 [4]),number of differentiated sebocytes (sebaceous glands),number of sebaceous glands (sebaceous glands)
O=c1cc(-c2ccccc2)oc2ccc3ccccc3c12 [3-phenyl-1H-benzo[f]chromen-1-one],significant induction,significant induction,significant induction,–,–,–
O=c1c2ccccc2oc2cc3ccccc3cc12 [compound A],–,–,–,> 20,reduction,clear reduction
